Measured values taken from ChEMBL document CHEMBL1201862, “PubChem BioAssay data set” (2004).
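Step 1: Grow cells in 96-well plates. Step 2: Expose to compound for 48 hours at 5 concentrations. Step 3: Interpolate endpoints linearly; if unreached, use highest concentration. GI50 is the concentration that inhibits growth by half.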 Calls of active or inactive are those of the source. Cut-off read from the data, not from the text of the source: active = GI50 up to about 1.1 µM and inactive = higher.

Assays:
Test in all cases: DTP human tumour cell line panel, 48 h
A498 = test system: A498
A549 = test system: A549
ACHN = test system: ACHN
COLO 205 = test system: COLO 205
HOP-92 = test system: HOP-92
Hs-578T = test system: Hs-578T
IGROV-1 = test system: IGROV-1
KM12 = test system: KM12
MDA-MB-231 = test system: MDA-MB-231
MDA-MB-435 = test system: MDA-MB-435
NCI/ADR-RES = test system: NCI/ADR-RES
OVCAR-5 = test system: OVCAR-5
RXF 393 = test system: RXF 393
SF-268 = test system: SF-268
SF-295 = test system: SF-295
SK-MEL-2 = test system: SK-MEL-2
SW-620 = test system: SW-620
UO-31 = test system: UO-31
NCI-H522 = test system: NCI-H522

Structure (SMILES) | GI50 (A498) | GI50 (A549) | GI50 (ACHN) | GI50 (COLO 205) | GI50 (HOP-92) | GI50 (Hs-578T) | GI50 (IGROV-1) | GI50 (KM12) | GI50 (MDA-MB-231) | GI50 (MDA-MB-435) | GI50 (NCI/ADR-RES) | GI50 (OVCAR-5) | GI50 (RXF 393) | GI50 (SF-268) | GI50 (SF-295) | GI50 (SK-MEL-2) | GI50 (SW-620) | GI50 (UO-31) | GI50 (NCI-H522)
Cc1cc2oc(=N)c(C#N)c(C)c2cc1C | > 100 µM (inactive) | 48.8 µM (inactive) | 38.5 µM (inactive) | 48.1 µM (inactive) | 44.2 µM (inactive) | 26.3 µM (inactive) | 26.5 µM (inactive) | 39.9 µM (inactive) | > 100 µM (inactive) | 51.5 µM (inactive) | 55.1 µM (inactive) | > 100 µM (inactive) | 24.3 µM (inactive) | 44 µM (inactive) | 44.6 µM (inactive) | 51.8 µM (inactive) | 67.6 µM (inactive) | 45.1 µM (inactive) | 
O=C(O)/C=N/NC(=S)NC1CCCCC1 | > 100 µM (inactive) | > 100 µM (inactive) | > 100 µM (inactive) | > 100 µM (inactive) | > 100 µM (inactive) | > 100 µM (inactive) | > 100 µM (inactive) | > 100 µM (inactive) | > 100 µM (inactive) | > 100 µM (inactive) | > 100 µM (inactive) | > 100 µM (inactive) |  |  | > 100 µM (inactive) | > 100 µM (inactive) | > 100 µM (inactive) | > 100 µM (inactive) | > 100 µM (inactive)
C#CCNC(CSSCC(N)C(=O)O)C(=O)O (stereo not drawn) | > 100 µM (inactive) | > 100 µM (inactive) | > 100 µM (inactive) | > 100 µM (inactive) | 4.73 µM (inactive) | > 100 µM (inactive) | > 100 µM (inactive) | > 100 µM (inactive) | > 100 µM (inactive) | > 100 µM (inactive) | > 100 µM (inactive) | > 100 µM (inactive) | > 100 µM (inactive) | > 100 µM (inactive) | > 100 µM (inactive) | > 100 µM (inactive) | > 100 µM (inactive) | > 100 µM (inactive) | > 100 µM (inactive)
CC(C)(C)[Si](C)(C)OCCCCC1CC2(S(=O)(=O)C3=CC=C=C=C3)ON1CC2S(=O)(=O)c1ccccc1 (stereo not drawn) | > 100 µM (inactive) | > 100 µM (inactive) | > 100 µM (inactive) | > 100 µM (inactive) | > 100 µM (inactive) | > 100 µM (inactive) | > 100 µM (inactive) | > 100 µM (inactive) | > 100 µM (inactive) | > 100 µM (inactive) | > 100 µM (inactive) | > 100 µM (inactive) | > 100 µM (inactive) | > 100 µM (inactive) |  | > 100 µM (inactive) | > 100 µM (inactive) | > 100 µM (inactive) | 
C[N+](C)(C)c1ncnc2c1ncn2C1CCCCO1 (stereo not drawn) | > 100 µM (inactive) | > 100 µM (inactive) | > 100 µM (inactive) | > 100 µM (inactive) | > 100 µM (inactive) | > 100 µM (inactive) | > 100 µM (inactive) | > 100 µM (inactive) | > 100 µM (inactive) | > 100 µM (inactive) | > 100 µM (inactive) | > 100 µM (inactive) | > 100 µM (inactive) | > 100 µM (inactive) | > 100 µM (inactive) | > 100 µM (inactive) | > 100 µM (inactive) | > 100 µM (inactive) | > 100 µM (inactive)
CC(=O)NCCc1c(-c2[nH]c3ccccc3c2CCNC(C)=O)[nH]c2ccccc12 | 74.8 µM (inactive) | > 100 µM (inactive) | 66.7 µM (inactive) | > 100 µM (inactive) | 22.2 µM (inactive) | 40.1 µM (inactive) | 24.6 µM (inactive) |  | 82.4 µM (inactive) | > 100 µM (inactive) | 87.1 µM (inactive) | 66.7 µM (inactive) | > 100 µM (inactive) | > 100 µM (inactive) | > 100 µM (inactive) | > 100 µM (inactive) | > 100 µM (inactive) | > 100 µM (inactive) | 
O[C@@H]1C[C@H]2N3CC[C@@]2(c2cc4c(cc2C3)OCO4)[C@H]2O[C@@H]12 | > 100 µM (inactive) | > 100 µM (inactive) | > 100 µM (inactive) | < 0.01 µM (active) | > 100 µM (inactive) | > 100 µM (inactive) | > 100 µM (inactive) | > 100 µM (inactive) | > 100 µM (inactive) | > 100 µM (inactive) | > 100 µM (inactive) | > 100 µM (inactive) | > 100 µM (inactive) | > 100 µM (inactive) | > 100 µM (inactive) | > 100 µM (inactive) | > 100 µM (inactive) | > 100 µM (inactive) | > 100 µM (inactive)
CC1=C(C(=O)Nc2ccccc2)C(c2ccc(C)o2)C(C#N)=C(SCc2ccccc2)N1 (stereo not drawn) | > 81.5 µM (inactive) | > 90.4 µM (inactive) | > 100 µM (inactive) | 31.3 µM (inactive) | 5.25 µM (inactive) | > 87.3 µM (inactive) | 52.6 µM (inactive) | 10.9 µM (inactive) | > 100 µM (inactive) | 4.58 µM (inactive) | 18.7 µM (inactive) | > 100 µM (inactive) | > 37.6 µM (inactive) | > 100 µM (inactive) | 96.2 µM (inactive) | > 100 µM (inactive) | > 58.6 µM (inactive) | 99.3 µM (inactive) | 9.55 µM (inactive)
N#Cc1cc2cc3c4c(c2oc1=O)CCCN4CCC3 | > 100 µM (inactive) | > 100 µM (inactive) | > 100 µM (inactive) | > 100 µM (inactive) | > 100 µM (inactive) | > 100 µM (inactive) | > 100 µM (inactive) | > 100 µM (inactive) | > 100 µM (inactive) | > 100 µM (inactive) | > 100 µM (inactive) | > 100 µM (inactive) | > 100 µM (inactive) | > 100 µM (inactive) | > 100 µM (inactive) | > 100 µM (inactive) | > 100 µM (inactive) | > 100 µM (inactive) | > 100 µM (inactive)
C/C(=N\NC(=S)NC(C)(C)C)c1ccccn1 | 0.248 µM (active) | 0.248 µM (active) | < 0.01 µM (active) | < 0.01 µM (active) | 0.342 µM (active) | 1.12 µM (inactive) | < 0.01 µM (active) | 0.574 µM (active) | < 0.0378 µM (active) | 1.52 µM (inactive) | < 0.01 µM (active) |  | < 0.01 µM (active) | 1.39 µM (inactive) | 0.589 µM (active) | 0.408 µM (active) | < 0.01 µM (active) | 0.189 µM (active) | 0.191 µM (active)
CCCCCCCCCCCCCCCCOP(=O)(O)OCC(NC(C)=O)C(=O)O (stereo not drawn) | 32.4 µM (inactive) | > 100 µM (inactive) | > 100 µM (inactive) | > 100 µM (inactive) | 55.3 µM (inactive) | 27.9 µM (inactive) | 24.3 µM (inactive) |  | 22.9 µM (inactive) | 35.4 µM (inactive) | > 100 µM (inactive) | > 100 µM (inactive) | 21.7 µM (inactive) | 31 µM (inactive) | 20.4 µM (inactive) | > 100 µM (inactive) | > 100 µM (inactive) | > 100 µM (inactive) | 5.64 µM (inactive)
CCCCCCCCCCCCCCCCCCNc1ccn(C2OC(COP(=O)(O)OCC3OC(n4ccc(NC(=O)CCCCCCCCCCCCCCCCC)nc4=O)C(OC(C)=O)C3OC(C)=O)C(OC(C)=O)C2OC(C)=O)c(=O)n1 (stereo not drawn) | > 100 µM (inactive) | > 100 µM (inactive) | > 100 µM (inactive) | > 100 µM (inactive) |  | > 100 µM (inactive) | > 100 µM (inactive) | > 100 µM (inactive) | > 100 µM (inactive) | > 100 µM (inactive) | > 100 µM (inactive) | > 100 µM (inactive) | > 100 µM (inactive) | > 100 µM (inactive) | > 100 µM (inactive) | > 100 µM (inactive) | > 100 µM (inactive) | > 100 µM (inactive) | > 100 µM (inactive)
COc1cccc(C2C3=C(COC3=O)Oc3cc4c(cc32)OCO4)c1 (stereo not drawn) | 0.0264 µM (active) | 0.0412 µM (active) | 0.0432 µM (active) | 0.0233 µM (active) |  | < 0.0176 µM (active) | 0.0738 µM (active) | < 0.0142 µM (active) | 0.0718 µM (active) | < 0.01 µM (active) | 0.0168 µM (active) | 0.52 µM (active) | 0.0251 µM (active) | 0.0575 µM (active) | < 0.0303 µM (active) | < 0.0247 µM (active) | 0.0188 µM (active) | 0.0927 µM (active) | < 0.01 µM (active)
Clc1cccc(Cl)c1C1ON=C(c2ccccc2)N1C12CC3CC(CC(C3)C1)C2 (stereo not drawn) | 56.4 µM (inactive) | 25.2 µM (inactive) | 11.2 µM (inactive) | 11.9 µM (inactive) | 13.3 µM (inactive) | 24.2 µM (inactive) | 29.1 µM (inactive) | 1.63 µM (inactive) | 10.1 µM (inactive) | 17.9 µM (inactive) | 15.2 µM (inactive) | > 100 µM (inactive) | 39.1 µM (inactive) | 82 µM (inactive) | > 100 µM (inactive) | 12.1 µM (inactive) |  | 58.5 µM (inactive) | 32.2 µM (inactive)
C(=C\c1ccccc1)/COc1ccccc1C(N1CCOCC1)n1nc2ccccc2n1 (stereo not drawn) | 38.1 µM (inactive) | 41 µM (inactive) | 7.98 µM (inactive) | 19.9 µM (inactive) | 5.15 µM (inactive) | 7.24 µM (inactive) | 7.98 µM (inactive) | 5.26 µM (inactive) | 4.73 µM (inactive) | 0.365 µM (active) | 3.69 µM (inactive) | 14.1 µM (inactive) | 3.94 µM (inactive) | 5.71 µM (inactive) | 8.95 µM (inactive) | 7.23 µM (inactive) | 4.28 µM (inactive) | 9.86 µM (inactive) | 22 µM (inactive)
